# Measurements: publication PMC10961089, “Epidermal growth factor receptor inhibition potentiates chemotherapeutics‐mediated sensitization of metastatic breast cancer stem cells” (Cancer Reports, 2024)
# Tests used:
# [1] = system: human CD44, ALDH1A1, Fibronectin, N‐Cadherin, Vimentin in tumor tissue; assay: qRT-PCR of human CSC/EMT genes in tumor tissues; format: in vivo, C57BL/6 mice
# Protocol: Additionally, total RNA was isolated from tumor tissues and utilized for cDNA synthesis (Thermo Scientific, Massachusetts, USA). To determine the transcriptional regulation of expression of EMT genes in tumor tissues subjected to various treatment regimes, quantitative real‐time PCR (qRT‐PCR) analysis was performed as described previously[28] using human gene‐specific forward and reverse primers of EMT genes. Amplification of Eukaryotic 18S rRNA served as an internal control and was utilized to calculate the fold change in expression.[29]
# (§1) Animal studies have been carried out with the prior approval of the Institutional Animal Ethics Committee (IICT/IAEC/025/2023). C57BL/6 female mice of age 6–8 weeks (N = 35) were initially immunosuppressed with cyclophosphamide (50 mg/kg of body weight, i.p) on alternate days for 2 weeks. For generating a preclinical orthotopic xenograft tumor model, 2 × 10^6 GFP expressing sorted stable CD24^+‐breast cancer cells and CD24^−/CD44^+‐breast CSCs were orthotopically xeno‐transplanted subcutaneously at the fourth mammary fat pad of immune‐suppressed mice (n = 5/group). Subsequently, intratumoral administration of Doxorubicin at a low dose (2.5 mg/kg of body weight), high dose (10 mg/kg of body weight), and/or combinatorial treatment of the potent EGFR inhibitor, compound 1e (50 mg/kg of body weight) or the commercial EGFR inhibitor, PD153035 (50 mg/kg of body weight) with a low dose of doxorubicin was performed to the palpable tumors of breast CSCs at day‐3 post‐transplantation.
# [2] = system: CD44, p‐EGFR, p‐JNK, p‐p38 in tumor tissue; assay: Immunohistochemical analysis of tumor tissue (colocalization with GFP, Pearson's correlation coefficient); format: in vivo, C57BL/6 mice
# Protocol: as §1
# Immunohistochemical analysis was performed by immunostaining the tissue serial sections with primary antibodies against GFP, CD44, p‐EGFR, p‐JNK, and p‐p38 (CST, USA) followed by alexafluor‐488/555 conjugated secondary antibodies (R&D systems, USA) and mounting medium containing DAPI.[28], [29] Images were captured using a confocal microscope (Olympus FV10i, Tokyo, Japan). Pearson's correlation coefficient was utilized to determine the co‐localization of GFP/CD44, GFP/p‐EGFR, GFP/p‐JNK, and GFP/p‐p38 (Table. ST3).
# [3] = system: BAX, BCL‐2, cytochrome‐C in MDA‐MB‐231 cells; assay: Immunoblot analysis of apoptotic markers; format: cell-based, human; settings: MDA-MB-231, doxorubicin 0.01 μM + compound 5 μM
# Protocol: MDA‐MB‐231 cells were subjected to the treatment of doxorubicin (0.01 μM) in the absence/presence of the selected potent compounds—1c, 1e, 1g, 1h, 1j, and 1k at 5 μM concentration or a standard EGFR inhibitor, PD153035 (10 μM) for 48 h. Separately, TNBC cells—MDA‐MB‐231 were also treated with doxorubicin (0.01 and/or 0.1 μM) in the absence/presence of potent EGFR inhibitor/compound, 1e at 5 μM concentration or a standard EGFR inhibitor, PD153035 (10 μM) for 48 h. Cells were then lysed to isolate the total protein and subjected to SDS‐PAGE, transferred onto a poly (vinylidene difluoride) membrane, probing with primary antibodies (Table ST2) against apoptotic markers—BAX, BCL‐2, cytochrome‐C, and β‐actin followed by incubation with horseradish peroxidase‐conjugated secondary antibodies (CST, Waltham, MA, USA) as described previously.[6] Visualization was performed using G: Box (Syngene, Cambridge, UK).
# [4] = system: CD24^+‐breast cancer cells; assay: Mammosphere forming efficiency, sorted cells; format: cell-based, human; settings: doxorubicin 0.01 μM + 1e
# Protocol: (§2) TNBC cell lines—MDA‐MB‐231, MDA‐MB‐468, or the sorted CD24^+‐breast cancer cells, and CD24^−/CD44^+‐breast CSC populations from MDA‐MB‐231 [6] were seeded at a 1 × 10^4 cells/well density in mammosphere‐specific medium—Medium‐171 (Gibco, USA), supplemented with mammary epithelial growth supplement (MEGS) and B‐27 (Life technologies, Auckland, New Zealand) as described previously.[6], [26] TNBC cells or the sorted breast cancer cells and CSCs were plated onto poly‐hydroxyethyl methacrylate (Sigma‐Aldrich, USA) coated 24‐well plates and subjected to treatment with DMSO (Vehicle), Doxorubicin (0.01 and 0.1 μM) alone or with the potential EGFR inhibitors (compounds—1c, 1e, 1g, 1h, 1j, and 1k (5 μM) based on their low IC50 values) or a commercial EGFR inhibitor, PD153035 (10 μM). The suspension cultures were incubated under 5% CO2, at 37°C in a humidified atmosphere for 7 days. At the end of the treatment period, the images of mammospheres were taken at 10× magnification using a microscope (Olympus IX71, Tokyo, Japan). The size of spheres was measured using ImageJ software (NIH, Bethesda, MD, USA).
# [5] = system: CD24^−/CD44^+‐breast CSCs; assay: Mammosphere forming efficiency, sorted cells; format: cell-based, human; settings: doxorubicin 0.01 μM + 1e
# Protocol: as §2
structure (smiles),measurement,setting,value
c1cncc(C(c2c[nH]c3ccccc23)c2c[nH]c3ccccc23)c1 [1e],expression level of human CD44 in tumor tissue,[1]; with doxorubicin low dose vs low dose doxorubicin alone,significantly decreased
same,"expression of human mesenchymal genes ALDH1A1, Fibronectin, N‐Cadherin, Vimentin","[1]; with low dose of doxorubicin, CSC xenograft",significantly decreased
same,colocalization of GFP/p‐EGFR,"[2]; with doxorubicin low dose, CSC xenograft tumor tissue",decreased significantly
same,"activation of apoptotic signaling mediators (GFP/p‐JNK, GFP/p‐p38 colocalization)","[2]; with low dose doxorubicin, comparable with high dose doxorubicin alone",increased activation
same,colocalization of GFP and CD44 (Pearson's correlation coefficient),"[2]; with low dose of doxorubicin, CSC xenograft tumor tissue",comparable to the high dose of doxorubicin treated group
same,BAX protein level,[3]; 48 h,elevation
same,BAX/BCL2 ratio,[3]; 48 h,elevation
same,BCL2 levels,[3]; 48 h,marked decrease
same,doxorubicin‐induced expression of Cyt‐C,[3]; vs the other compounds,comparatively higher levels
same,mammosphere forming efficiency,[4],significant decrease
same,mammosphere forming efficiency,[5],significant decrease
